# Source: patent US6420385B1, “Substituted pyrimidinone and pyridone compounds and methods of use” (Amgen Inc., priority 1996, dated 2002)
# System: TNF production by monocytes activated with bacterial lipopolysaccharide (LPS)
# Test: Lipopolysaccharide-activated monocyte TNF production assay (LPS induced TNF release)
# Assay type: cell-based, human
# Conditions: Homo sapiens, Monocyte, TNF in supernatant by ELISA
# Experimental: Lipopolysaccharide-activated Monocyte TNF Production Assay
# Test compounds were evaluated in vitro for the ability to inhibit the production of TNF by monocytes activated with bacterial lipopolysaccharide (LPS). Fresh residual source leukocytes (a byproduct of plateletpheresis) were obtained from a local blood bank, and peripheral blood mononuclear cells (PBMCs) were isolated by density gradient centrifugation on Ficol-Paque Plus (Pharmacia). PBMCs were suspended at 2×10^6/ ml in DMEM supplemented to contain 2% FCS, 10 mM, 0.3 mg/ml glutamate, 100 U/ml penicillin G and […] streptomycin sulfate (complete media). Cells were plated into Falcon flat bottom, 96 well culture plates (200 μl/well) and cultured overnight at 37° C. and 6% CO2. Non-adherent cells were removed by washing with 200 μl/well of fresh medium. Wells containing adherent cells (˜70% monocytes) were replenished with 100 μl of fresh medium.
# Preparation of Test Compound Stock Solutions
# Test compounds were dissolved in […]. Compound stock solutions were prepared to an initial concentration of […]. Stocks were diluted initially to 20-200 μM in complete media. Nine two-fold serial dilutions of each compound were then prepared in complete medium.
# Treatment of Cells with Test Compounds and Activation of TNF Production with Lipopolysaccharide
# One hundred microliters of each test compound dilution were added to microtiter wells containing adherent monocytes and 100 μl complete medium. Monocytes were cultured with test compounds for 60 min at which time 25 μl of complete medium containing 30 ng/ml lipopolysaccharide from E. coli K532 were added to each well. Cells were cultured an additional 4 hrs. Culture supernatants were then removed and TNF presence in the supernatants was quantified using an ELISA.
# Flat bottom, 96 well Corning High Binding ELISA plates were coated overnight (4° C.) with 150 μL/well of 3 μg/ml murine anti-human TNF-α MAb (R&D Systems #MAB210). Wells were then blocked for 1 hr at room temperature with 200 μL/well of CaCl2-free ELISA buffer supplemented to contain 20 mg/ml BSA (standard ELISA buffer: […], 150 mM NaCl, 2 mM CaCl2, 0.15 mM thimerosal, pH 7.4). Plates were washed and replenished with 100 μl of test supernatants (diluted 1:3) or standards. Standards consisted of eleven 1.5-fold serial dilutions from a stock of 1 ng/ml recombinant human TNF (R&D Systems). Plates were incubated at room temperature for 1 hr on orbital shaker (300 rpm), washed and replenished with 100 μl/well of 0.5 μg/ml goat anti-human TNF-α (R&D systems #AB-210-NA) biotinylated at a 4:1 ratio. Plates were incubated for 40 min, washed and replenished with 100 μl/well of alkaline phosphatase-conjugated streptavidin (Jackson ImmunoResearch #016-050-084) at 0.02 μg/ml. Plates were incubated 30 min, washed and replenished with 200 μl/well of 1 mg/ml of p-nitrophenyl phosphate. After 30 min, plates were read at […] on a Vmax plate reader.
# Standard curve data were fit to a second order polynomial and unknown TNF-α concentrations determined from their OD by solving this equation for concentration. TNF concentrations were then plotted vs. test compound concentration using a second order polynomial. This equation was then used to calculate the concentration of test compounds causing a 50% reduction in TNF production.
row,SMILES,IC50 [µM]
1,O=c1[nH]c(-c2cccs2)cc(-c2ccncc2)c1-c1ccccc1 [3-Phenyl-4-(4-pyridyl)-6-(2-thienyl)-2(1H)-pyridone],≤ 20
2,Cc1ccc(-c2cc(-c3ccncc3)c(-c3ccccc3)c(=O)[nH]2)cc1 [6-(4-Methylphenyl)-3-phenyl-4-(4-pyridyl)-2(1H)-pyridone],≤ 20
3,O=c1[nH]c(-c2ccco2)cc(-c2ccncc2)c1-c1ccccc1 [6-(2-Furyl)-3-phenyl-4-(4-pyridyl)-2(1H)-pyridone],≤ 20
4,"Cc1ccc(-c2cc(-c3ccncc3)c(-c3ccccc3)c(=O)[nH]2)c(C)c1 [6-(2,4-Dimethylphenyl)-3-phenyl-4-(4-pyridyl)-2(1H)-pyridone]",≤ 20
5,"O=c1[nH]c(-c2ccccc2)cc(-c2ccncc2)c1-c1ccccc1 [3,6-Diphenyl-4-(4-pyridyl)-2(1H)-pyridone]",≤ 20

# Same assay, conditions: TNF in supernatant by ELISA
row,SMILES,IC50 [µM]
1,Cn1c(NCCC(N)c2ccccc2)nc(-c2ccncc2)c(-c2cccc(C(F)(F)F)c2)c1=O (stereo not shown) [2-((3-Amino-3-phenylpropyl)-amino)-3-methyl-6-(4-pyridyl)5-(3-trifluoromethylphenyl)-4-(3H)-pyrimidinone],≤ 5
2,Cc1ccccc1C(N)CCNc1nc(-c2ccncc2)c(-c2cccc(C(F)(F)F)c2)c(=O)n1C (stereo not shown) [2-((3-Amino-3-(2-methylphenyl)propyl)-amino)-3-methyl-6-(4-pyridyl)5-(3-trifluoromethylphenyl)-4-(3H)-pyrimidinone],≤ 5
